Experimental data from PMC5011342, “A high throughput drug screening assay to identify compounds that promote oligodendrocyte differentiation using acutely dissociated and purified oligodendrocyte precursor cells” (BMC Research Notes, 2016).
Counter-ions that a name gives are not always drawn. Like-named read-outs stand apart in the source and are kept apart here.

Columns and labels:
expanded OPCs = experiment: cells; conditions: for viability at 0.1 µM / viability at 1 µM / viability at 10 µM: Rattus norvegicus, 72 h
Method in brief: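 Toxicity screen: compounds added at 0.1, 1 and 10 µM to PDGF-AA-expanded OPCs in 96-well plates, 3-day incubation at 37 °C, 10% CO2, then alamarBlue 1:10 for 4 h with fluorescence readout. Results set screening doses of 10/2, 2/0.4 or 0.4/0.08 µM.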

[1] = test system: acutely dissociated and purified rat OPCs; experiment: Acute OL differentiation assay (MBP expression/cell, immunofluorescent image quantification); format: cell-based; conditions: sheet "All OLga data"
Method in brief: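 This acute differentiation assay used purified rat OPCs from postnatal day 6–7 pups, seeded into PDL/laminin-coated 96-well plates in differentiation medium lacking PDGF and FGF. Compounds were applied in quadruplicate after a 1–2 h preincubation at 37 °C, 10 % CO2, with 0.1 % DMSO negative and 40 ng/ml T3 positive controls in eight wells. After fixation on DIV4, anti-MBP immunofluorescence images yielded MBP expression/cell.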

[2] = read-out: 0.1 µM (% DMSO), alamarBlue viability of expanded OPCs, compound at 0.1 µM, sheet All Tox data
[3] = read-out: 1 µM (% DMSO), alamarBlue viability of expanded OPCs, compound at 1 µM, sheet All Tox data
[4] = read-out: 10 µM (% DMSO), alamarBlue viability of expanded OPCs, compound at 10 µM, sheet All Tox data
[5] = Rattus norvegicus, 2 uM test compound, relative to quetiapine, read-out: OL differentiation, 2 uM (% Quet)
[6] = Rattus norvegicus, 10 uM test compound, relative to quetiapine, read-out: OL differentiation, 10 uM (% Quet)
[7] = Rattus norvegicus, test compound at 2 uM, MBP expression relative to quetiapine, NCC library screen, read-out: 2 uM (% Quet)
[8] = alamarBlue viability of expanded OPCs, compound at 0.1 µM, relative to DMSO control
[9] = alamarBlue viability of expanded OPCs, compound at 1 µM, relative to DMSO control
[10] = alamarBlue viability of expanded OPCs, compound at 10 µM, relative to DMSO control
[11] = Rattus norvegicus, test compound at 2 uM, NCC library screen, relative to quetiapine, read-out: 2 uM (% Quet)
[12] = Rattus norvegicus, test compound at 10 uM, NCC library screen, relative to quetiapine, read-out: 10 uM (% Quet)
[13] = read-out: 0.1 µM (% DMSO), alamarBlue viability, NCC library compound at 0.1 µM, sheet "All Tox data"
[14] = read-out: 1 µM (% DMSO), alamarBlue viability, NCC library compound at 1 µM, sheet "All Tox data"
[15] = read-out: 10 µM (% DMSO), alamarBlue viability, NCC library compound at 10 µM, sheet "All Tox data"
[16] = Rattus norvegicus, 0.4 uM test compound, relative to quetiapine, read-out: OL differentiation, 0.4 uM (% Quet)
[17] = Rattus norvegicus, test compound at 0.4 uM, NCC library screen, relative to quetiapine, read-out: 0.4 uM (% Quet)
[18] = Rattus norvegicus, test compound at 0.4 uM, MBP expression relative to quetiapine, NCC library screen, read-out: 0.4 uM (% Quet)

SMILES	viability at 0.1 µM (expanded OPCs; [2]) [%]	viability at 1 µM (expanded OPCs; [3]) [%]	viability at 10 µM (expanded OPCs; [4]) [%]	activation at 2 µM [1, 5] [%]	activation at 10 µM [1, 6] [%]	viability at 0.1 µM (expanded OPCs; [13]) [%]	viability at 1 µM (expanded OPCs; [14]) [%]	viability at 10 µM (expanded OPCs; [15]) [%]	further results
CCOC(=O)[C@H](CCc1ccccc1)N[C@@H](C)C(=O)N1[C@H](C(=O)O)C[C@@H]2CCC[C@@H]21 [Ramipril]	90.8	98.4	100	-3.3	-14.5	–	–	–	0.1 µM (% DMSO) (expanded OPCs; rat, 3 days, 0.1 µM): 92.1 % DMSO; 1 µM (% DMSO) (expanded OPCs; rat, 3 days, 1 µM): 96.0 % DMSO; 10 µM (% DMSO) (expanded OPCs; rat, 3 days, 10 µM): 96.0 % DMSO; activation at 2 µM [1, 7]: 2.5%; activation at 10 µM ([1]; Rattus norvegicus, test compound at 10 uM, MBP expression relative to quetiapine, NCC library screen, read-out: 10 uM (% Quet)): -1.1%
CNC(=C[N+](=O)[O-])NCCSCc1ccc(CN(C)C)o1 [Ranitidine]	–	–	–	–	–	–	–	–	0.1 µM (% DMSO) (expanded OPCs; [8]): 109.0 % DMSO; 1 µM (% DMSO) (expanded OPCs; [9]): 105.8 % DMSO; 10 µM (% DMSO) (expanded OPCs; [10]): 106.7 % DMSO; activation at 2 µM [1, 11]: -29.4%; activation at 10 µM [1, 12]: -7.9%
COc1ccccc1OCC(O)CN1CCN(CC(=O)Nc2c(C)cccc2C)CC1 (stereo not shown) [Ranolazine]	99.2	92.2	95.9	11.6	-35.3	–	–	–	–
CC(Cc1ccccc1)(NC(=O)CN)c1ccccc1 (stereo not shown) [Remacemide]	–	–	–	4.8	–	113	88.6	44.7	activation at 0.4 µM [1, 16]: 5.6%
CN1CCN2c3ncccc3Cc3ccccc3C2C1 (stereo not shown) [Remergil]	–	–	–	–	–	–	–	–	0.1 µM (% DMSO) (expanded OPCs): 90.1 % DMSO; 1 µM (% DMSO) (expanded OPCs): 82.0 % DMSO; 10 µM (% DMSO) (expanded OPCs): 62.7 % DMSO; 2 uM (% Quet) ([1]; test compound at 2 uM, MBP expression relative to quetiapine, NCC library screen): -49.3 % Quet; 10 uM (% Quet) ([1]; test compound at 10 uM, MBP expression relative to quetiapine, NCC library screen): -63.5 % Quet
CCOc1cc(CC(=O)N[C@@H](CC(C)C)c2ccccc2N2CCCCC2)ccc1C(=O)O [Repaglinide]	–	–	–	–	–	90.5	96.8	125	activation at 2 µM [1, 11]: 13.8%; activation at 10 µM [1, 12]: -23.7%
Oc1ccc(/C=C/c2cc(O)cc(O)c2)cc1 [Resveratrol]	–	–	–	–	–	83.2	87.6	76.7	activation at 2 µM [1, 11]: -34.1%; activation at 10 µM [1, 12]: -128%
CC1=C(/C=C/C(C)=C/C=C/C(C)=C/C(=O)O)C(C)(C)CCC1 [Retinoic Acid]	–	–	–	–	–	–	–	–	0.1 µM (% DMSO) (expanded OPCs; [8]): 144.5 % DMSO; 1 µM (% DMSO) (expanded OPCs; [9]): 188.5 % DMSO; 10 µM (% DMSO) (expanded OPCs; [10]): 58.3 % DMSO; activation at 0.4 µM [1, 17]: -23%; activation at 2 µM [1, 11]: 128%
NC(=O)c1ncn([C@@H]2O[C@H](CO)[C@@H](O)[C@H]2O)n1 [Ribavirin]	–	–	–	–	–	–	–	–	0.1 µM (% DMSO) (expanded OPCs; [8]): 96.2 % DMSO; 1 µM (% DMSO) (expanded OPCs; [9]): 92.8 % DMSO; 10 µM (% DMSO) (expanded OPCs; [10]): 76.9 % DMSO; activation at 0.4 µM [1, 18]: 8.6%; activation at 2 µM [1, 7]: 6.7%
CO[C@H]1/C=C/O[C@@]2(C)Oc3c(C)c(O)c4c(c3C2=O)C2=NC3(CCN(CC(C)C)CC3)NC2=C(NC(=O)/C(C)=C\C=C\[C@H](C)[C@H](O)[C@@H](C)[C@@H](O)[C@@H](C)[C@H](OC(C)=O)[C@@H]1C)C4=O [Rifabutin]	86.7	79.7	37	-31.8	–	–	–	–	0.1 µM (% DMSO) (expanded OPCs; [8]): 95.3 % DMSO; 1 µM (% DMSO) (expanded OPCs; [9]): 77.1 % DMSO; 10 µM (% DMSO) (expanded OPCs; [10]): 32.3 % DMSO; activation at 0.4 µM [1, 16]: 16.3%; activation at 0.4 µM [1, 18]: -0.04%; activation at 2 µM [1, 7]: -15.6%
CO[C@H]1/C=C/O[C@@]2(C)Oc3c(C)c(O)c4c(O)c(c(/C=N/N5CCN(C)CC5)c(O)c4c3C2=O)NC(=O)/C(C)=C\C=C\[C@H](C)[C@H](O)[C@@H](C)[C@@H](O)[C@@H](C)[C@H](OC(C)=O)[C@@H]1C [Rifampicin]	–	–	–	–	–	–	–	–	0.1 µM (% DMSO) (expanded OPCs; [8]): 91.7 % DMSO; 1 µM (% DMSO) (expanded OPCs; [9]): 85.6 % DMSO; 10 µM (% DMSO) (expanded OPCs; [10]): 62.3 % DMSO; activation at 2 µM [1, 11]: -69.7%; activation at 10 µM [1, 12]: -188%
CO[C@H]1/C=C/O[C@@]2(C)Oc3c(C)c(O)c4c(O)c(c(/C=N/N5CCN(C6CCCC6)CC5)c(O)c4c3C2=O)NC(=O)/C(C)=C\C=C\[C@H](C)[C@H](O)[C@@H](C)[C@@H](O)[C@@H](C)[C@H](OC(C)=O)[C@@H]1C [Rifapentine]	–	–	–	-70.1	–	94.8	73	25.3	0.1 µM (% DMSO) (expanded OPCs; [8]): 89.9 % DMSO; 1 µM (% DMSO) (expanded OPCs; [9]): 78.4 % DMSO; 10 µM (% DMSO) (expanded OPCs; [10]): 40.0 % DMSO; activation at 0.4 µM [1, 16]: -16.7%; activation at 0.4 µM [1, 18]: -18.6%; activation at 2 µM [1, 7]: -118%
CO[C@H]1/C=C/O[C@@]2(C)Oc3c(C)c(O)c4c(O)c(c5c(nc6cc(C)ccn65)c4c3C2=O)NC(=O)/C(C)=C\C=C\[C@H](C)[C@H](O)[C@@H](C)[C@@H](O)[C@@H](C)[C@H](OC(C)=O)[C@@H]1C [Rifaximin]	–	–	–	-77.9	–	101	69.4	21	activation at 0.4 µM [1, 16]: -15.2%
CC(N)C12CC3CC(CC(C3)C1)C2 (stereo not shown) [Rimantadine]	–	–	–	–	–	–	–	–	0.1 µM (% DMSO) (expanded OPCs; [8]): 89.9 % DMSO; 1 µM (% DMSO) (expanded OPCs; [9]): 83.2 % DMSO; 10 µM (% DMSO) (expanded OPCs; [10]): 32.9 % DMSO; activation at 0.4 µM [1, 18]: -17.2%; activation at 2 µM [1, 7]: -11.2%
C[C@@H]1CN(CCCn2c3ccccc3c3ccccc32)C[C@H](C)N1 [Rimcazole]	–	–	–	–	–	61.7	33.6	9.5	activation at 0.08 µM ([1]; Rattus norvegicus, test compound at 0.08 uM, NCC library screen, relative to quetiapine, read-out: 0.08 uM (% Quet)): -5.2%; activation at 0.4 µM [1, 17]: 23.1%
Cc1nc2n(c(=O)c1CCN1CCC(c3noc4cc(F)ccc34)CC1)CCCC2 [Risperidone]	92.3	99.8	90.2	2.4	31.6	–	–	–	–
CC(C)c1nc(CN(C)C(=O)N[C@H](C(=O)N[C@@H](Cc2ccccc2)C[C@H](O)[C@H](Cc2ccccc2)NC(=O)OCc2cncs2)C(C)C)cs1 [Ritonavir]	96.5	97.4	69.8	-21.7	-35.8	–	–	–	–
CN(C)CCc1c[nH]c2ccc(Cn3cncn3)cc12 [Rizatriptan]	110	94.8	86.3	-2.6	-0.44	–	–	–	–
CS(=O)(=O)c1ccc(C2=C(c3ccccc3)C(=O)OC2)cc1 [Rofecoxib]	91.5	97.2	115	-10.8	-9	–	–	–	–
COc1ccc(C2CNC(=O)C2)cc1OC1CCCC1 (stereo not shown) [Rolipram]	97.1	92.8	86.8	11.2	-14.2	–	–	–	–
CN(C)[C@@H]1C(O)=C(C(=O)NCN2CCCC2)C(=O)[C@@]2(O)C(O)=C3C(=O)c4c(O)cccc4[C@@](C)(O)[C@H]3C[C@@H]12 [Rolitetracycline]	–	–	–	–	–	94.4	92.4	69.8	activation at 2 µM [1, 11]: 1.5%; activation at 10 µM [1, 12]: -11.1%
CN(CCOc1ccc(CC2SC(=O)NC2=O)cc1)c1ccccn1 (stereo not shown) [Rosiglitazone maleate]	95.3	103	158	7.9	–	–	–	–	–
CC(=O)OCC(=O)NCCCOc1cccc(CN2CCCCC2)c1 [Roxatidine acetate]	–	–	–	-1.7	8.2	101	96	85.7	–
CN1CCN(c2c(F)cc3c(=O)c(C(=O)O)cn4c3c2SCC4)CC1 [Rufloxacin]	98.3	89.1	103	-26.4	7	–	–	–	–
C[C@@H]1O[C@@H](OC[C@H]2O[C@@H](Oc3c(-c4ccc(O)c(O)c4)oc4cc(O)cc(O)c4c3=O)[C@H](O)[C@@H](O)[C@@H]2O)[C@H](O)[C@H](O)[C@H]1O [Rutin]	106	108	106	22.9	21.3	–	–	–	–
